Results as given in patent US20190030170A1, “CANNABINOID FORMULATIONS WITH IMPROVED SOLUBILITY” (Vireo Health LLC, priority 2016, published 2019).
≈ marks a conversion by molar mass, not a printed value.

Test: solubility of CBD in water and other aqueous solvents with Captisol (SAE-CD) and/or added polymers, surfactants, pH
Format: physicochemical
Text: In some embodiments the addition of water soluble polymers and/or surfactants increases the solubility of the CBD/Captisol mixture. Therefore, in some embodiments the formulations may include the addition of these or other ingredients as solubility enhancers.

Q: What does the source list for `C=C(C)[C@@H]1CCC(C)=C[C@H]1c1c(O)cc(CCCCC)cc1O` [CBD, cannabidiol]?
A: solubility (aqueous solvent with 0.5% Poloxamer 188, without Captisol, aqueous with cosolvent or surfactant or cyclodextrin, Captisol 0%, 0.5% Poloxamer 188): 133 µg/mL (≈ 0.423 mM); solubility (aqueous solvent, aqueous with cosolvent or surfactant or cyclodextrin, Captisol 0%, 1% CMC): 593 µg/mL (≈ 1.89 mM); solubility (aqueous solvent, aqueous with cosolvent or surfactant or cyclodextrin, Captisol 0%, 1% CrEL): 8960 µg/mL (≈ 28.5 mM); solubility (aqueous solvent, aqueous with cosolvent or surfactant or cyclodextrin, Captisol 0%, 1% HPMC): 590 µg/mL (≈ 1.88 mM); solubility (aqueous solvent, aqueous with cosolvent or surfactant or cyclodextrin, Captisol 0%, 1% PVP): 602 µg/mL (≈ 1.92 mM); solubility (aqueous solvent, aqueous with cosolvent or surfactant or cyclodextrin, Captisol 0%, 1% Tween 80): 4200 µg/mL (≈ 13.3 mM); solubility (aqueous solvent, aqueous with cosolvent or surfactant or cyclodextrin, Captisol 0%, 5% CrEL): 21900 µg/mL (≈ 69.7 mM); solubility (aqueous solvent, aqueous with cosolvent or surfactant or cyclodextrin, Captisol 0%, 10% CrEL): 47800 µg/mL (≈ 152 mM); solubility (aqueous solvent, aqueous with cosolvent or surfactant or cyclodextrin, Captisol 20%, 0.5% CMC): 14.5 µg/mL (≈ 0.0461 mM); solubility (aqueous solvent, aqueous with cosolvent or surfactant or cyclodextrin, Captisol 20%, 0.5% HPMC): 1320 µg/mL (≈ 4.2 mM); solubility (aqueous solvent, aqueous with cosolvent or surfactant or cyclodextrin, Captisol 20%, 0.5% PVP): 1180 µg/mL (≈ 3.74 mM); solubility (aqueous solvent, aqueous with cosolvent or surfactant or cyclodextrin, Captisol 20%, 0.5% Poloxamer 188): 1410 µg/mL (≈ 4.49 mM); solubility (aqueous solvent, aqueous with cosolvent or surfactant or cyclodextrin, Captisol 20%, 1% CMC): 1710 µg/mL (≈ 5.44 mM); solubility (aqueous solvent, aqueous with cosolvent or surfactant or cyclodextrin, Captisol 20%, 1% CrEL): 4280 µg/mL (≈ 13.6 mM); solubility (aqueous solvent, aqueous with cosolvent or surfactant or cyclodextrin, Captisol 20%, 1% HPMC): 1550 µg/mL (≈ 4.94 mM); solubility (aqueous solvent, aqueous with cosolvent or surfactant or cyclodextrin, Captisol 20%, 1% PVP): 1520 µg/mL (≈ 4.82 mM); solubility (aqueous solvent, aqueous with cosolvent or surfactant or cyclodextrin, Captisol 20%, 1% Tween 80): 2010 µg/mL (≈ 6.4 mM); solubility (aqueous solvent, aqueous with cosolvent or surfactant or cyclodextrin, Captisol 20%, 2% CMC): 365 µg/mL (≈ 1.16 mM); solubility (aqueous solvent, aqueous with cosolvent or surfactant or cyclodextrin, Captisol 20%, 2% PVP): 840 µg/mL (≈ 2.67 mM); solubility (aqueous solvent, aqueous with cosolvent or surfactant or cyclodextrin, Captisol 20%, 2% Tween 80): 720 µg/mL (≈ 2.29 mM); solubility (aqueous solvent, aqueous with cosolvent or surfactant or cyclodextrin, Captisol 20%, 5% CrEL): 13500 µg/mL (≈ 43 mM); solubility (aqueous solvent, aqueous with cosolvent or surfactant or cyclodextrin, Captisol 20%, 5% CrEL and EtOH): 21500 µg/mL (≈ 68.4 mM); solubility (aqueous solvent, aqueous with cosolvent or surfactant or cyclodextrin, Captisol 20%, 10% CrEL): 46700 µg/mL (≈ 149 mM); solubility (aqueous solvent, aqueous with cosolvent or surfactant or cyclodextrin, Captisol 20%, EtOH (line below the 10% heading)): 920 µg/mL (≈ 2.93 mM); solubility (aqueous solvent, aqueous with cosolvent or surfactant or cyclodextrin, Captisol 20%, additive None): 850 µg/mL (≈ 2.7 mM); solubility (aqueous solvent, aqueous with cosolvent or surfactant or cyclodextrin, Captisol 40%, 0.5% CMC): 3270 µg/mL (≈ 10.4 mM); solubility (aqueous solvent, aqueous with cosolvent or surfactant or cyclodextrin, Captisol 40%, 0.5% HPMC): 2680 µg/mL (≈ 8.52 mM); solubility (aqueous solvent, aqueous with cosolvent or surfactant or cyclodextrin, Captisol 40%, 0.5% PVP): 2950 µg/mL (≈ 9.37 mM); solubility (aqueous solvent, aqueous with cosolvent or surfactant or cyclodextrin, Captisol 40%, 0.5% Tween 80): 2020 µg/mL (≈ 6.42 mM); solubility (aqueous solvent, aqueous with cosolvent or surfactant or cyclodextrin, Captisol 40%, 1% CMC): 2640 µg/mL (≈ 8.38 mM); solubility (aqueous solvent, aqueous with cosolvent or surfactant or cyclodextrin, Captisol 40%, 1% HPMC): 3450 µg/mL (≈ 11 mM); solubility (aqueous solvent, aqueous with cosolvent or surfactant or cyclodextrin, Captisol 40%, 1% PVP): 3280 µg/mL (≈ 10.4 mM); solubility (aqueous solvent, aqueous with cosolvent or surfactant or cyclodextrin, Captisol 40%, 1% Tween 80): 2650 µg/mL (≈ 8.43 mM); solubility (aqueous solvent, aqueous with cosolvent or surfactant or cyclodextrin, Captisol 40%, additive None): 2800 µg/mL (≈ 8.9 mM); solubility (aqueous solvent, aqueous with cosolvent or surfactant or cyclodextrin, Captisol 0%, 5% CrEL and EtOH): 36200 µg/mL (≈ 115 mM); solubility (aqueous solvent, pH 2, aqueous with cosolvent or surfactant or cyclodextrin, Captisol 20%, pH ~2): 2480 µg/mL (≈ 7.89 mM); solubility (aqueous solvent, pH 4, aqueous with cosolvent or surfactant or cyclodextrin, Captisol 20%, pH 4): 650 µg/mL (≈ 2.07 mM); solubility (aqueous solvent, pH 7.4, aqueous with cosolvent or surfactant or cyclodextrin, Captisol 20%, PBS (pH = 7.4)): 720 µg/mL (≈ 2.29 mM); solubility (aqueous solvent, pH 7.4, aqueous with cosolvent or surfactant or cyclodextrin, Captisol 40%, PBS (pH = 7.4)): 2300 µg/mL (≈ 7.31 mM); solubility (aqueous solvent, pH 9, aqueous with cosolvent or surfactant or cyclodextrin, Captisol 20%, pH 9): 850 µg/mL (≈ 2.7 mM); solubility (aqueous solvent, water, Captisol 0%, additive None): 0.26 µg/mL (≈ 0.000827 mM); effect of complexation with Captisol on solubility of CBD in water and other aqueous solvents (complexation with an SAE-CD (Captisol)): significantly increased
